Data taken from PubChem BioAssay AID206 (DTP/NCI, 2004).
Where “and” joins values, the source holds several entries; their conditions need not be identical. Equal values may be shown once. Inconclusive results are not listed.

Test system: nude mice, HT29 intrarenal xenograft, tumor weight T/C
Assay: NCI In Vivo Anticancer Drug Screen. Data for tumor model HT29;CX-1 Human Adenocarcinoma (MER+) (intrarenal inoculation) in NU/NU Swiss (nude) mice
Settings: endpoint: mean tumor weight change, higher = larger tumour
How it was run: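 Mice with transplanted tumors are dosed with compound while controls get vehicle only. Survival or tumor burden is then assessed per group, and the treated value is expressed relative to control.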

[1] = dose: 37.5 mg/kg/injection, schedule: Q04DX004 (sc), vehicle: saline
[2] = dose: 75.0 mg/kg/injection, schedule: Q04DX004 (sc), vehicle: saline
[3] = dose: 75.0 mg/kg/injection, schedule: Q04DX004 (sc), vehicle: saline with Tween-80
[4] = dose: 150.0 mg/kg/injection, schedule: Q04DX004 (sc), vehicle: saline with Tween-80
[5] = dose: 300.0 mg/kg/injection, schedule: Q04DX004 (sc), vehicle: saline with Tween-80
[6] = dose: 600.0 mg/kg/injection, schedule: Q04DX004 (sc), vehicle: distilled water + Tween-80
[7] = dose: 2400.0 mg/kg/injection, schedule: Q04DX004 (sc), vehicle: distilled water + Tween-80
[8] = dose: 50.0 mg/kg/injection, schedule: Q04DX004 (sc), vehicle: saline with Tween-80
[9] = dose: 100.0 mg/kg/injection, schedule: Q04DX004 (sc), vehicle: saline with Tween-80
[10] = dose: 200.0 mg/kg/injection, schedule: Q04DX004 (sc), vehicle: saline with Tween-80
[11] = dose: 600.0 mg/kg/injection, schedule: Q04DX004 (sc), vehicle: Klucel (hydroxypropylcellulose) (HPC)
[12] = dose: 600.0 mg/kg/injection, schedule: Q04DX004 (sc), vehicle: saline with Tween-80
[13] = dose: 1200.0 mg/kg/injection, schedule: Q04DX004 (sc), vehicle: saline with Tween-80
[14] = dose: 300.0 mg/kg/injection, schedule: Q04DX004 (sc), vehicle: Klucel (hydroxypropylcellulose) (HPC)

COc1cc(NCCCCCCCNC(C)C)c2nccc(C)c2c1
T/C (dose: 18.7 mg/kg/injection, schedule: Q04DX004 (sc), vehicle: saline): 56 % of control | T/C [1]: 85 % of control | T/C [2]: 71 % of control

C1=CCOCOC1
T/C (dose: 37.5 mg/kg/injection, schedule: Q04DX004 (sc), vehicle: saline with Tween-80): 69 % of control | T/C [3]: 70 % of control | T/C [4]: 68 % of control | T/C [5]: 72 % of control

O=C(O)CCCCCCCC(=O)O
T/C [6]: 67 % of control | T/C [7]: 113 % of control

COc1cccc2c1C(=O)c1c(O)c3c(c(O)c1C2=O)C[C@@](O)(C(C)=O)C[C@@H]3OC1CC(N(Cc2ccccc2)Cc2ccccc2)C(O)C(C)O1 (some centres undefined)
T/C (dose: 25.0 mg/kg/injection, schedule: Q01DX010 (sc), vehicle: water): 36 % of control | T/C (dose: 31.25 mg/kg/injection, schedule: Q04DX004 (sc), vehicle: water): 104 % of control and 212 % of control | T/C (dose: 62.5 mg/kg/injection, schedule: Q04DX004 (sc), vehicle: water): 97 % of control and 220 % of control

COCC1OC2OC3C(COC)OC(OC4C(COC)OC(OC5C(COC)OC(OC6C(COC)OC(OC7C(COC)OC(OC8C(COC)OC(OC1C(O)C2O)C(O)C8O)C(O)C7O)C(O)C6O)C(O)C5O)C(O)C4O)C(O)C3O (centres undefined) (tested in a mixture with another compound)
T/C (dose: 100.0 mg/kg/injection, schedule: Q04DX004 (sc), vehicle: Klucel (hydroxypropylcellulose) (HPC)): 116 % of control | T/C (dose: 200.0 mg/kg/injection, schedule: Q04DX004 (sc), vehicle: Klucel (hydroxypropylcellulose) (HPC)): 67 % of control

Nc1cc2c3c(cccc3c1)C(=O)N(CCN1CCCC1)C2=O
T/C [8]: 170 % of control | T/C [9]: 202 % of control | T/C [10]: 233 % of control | T/C (dose: 400.0 mg/kg/injection, schedule: Q04DX004 (sc), vehicle: saline with Tween-80): 177 % of control

CC[n+]1c(-c2ccccc2)c2cc(N)ccc2c2ccc(N)cc21
T/C (dose: 15.0 mg/kg/injection, schedule: Q04DX004 (sc), vehicle: saline): 119 % of control | T/C (dose: 30.0 mg/kg/injection, schedule: Q04DX004 (sc), vehicle: saline): 66 % of control | T/C (dose: 60.0 mg/kg/injection, schedule: Q04DX004 (sc), vehicle: saline): 53 % of control

Nc1nc2ccc(NCc3ccc(C(=O)NC(CCC(=O)O)C(=O)O)cc3)cc2c(=O)[nH]1 (centres undefined)
T/C [8]: 36 % of control | T/C [9]: 46 % of control and 50 % of control | T/C [10]: 16 % of control and 29 % of control

Clc1ccc(C2SC=Cc3ccccc32)cc1 (centres undefined)
T/C [11]: 48 % of control

NC(C(=O)O)c1ccc(CBr)cc1 (centres undefined)
T/C (dose: 50.0 mg/kg/injection, schedule: Q04DX004 (sc), vehicle: acid diluted with saline): 76 % of control | T/C (dose: 100.0 mg/kg/injection, schedule: Q04DX004 (sc), vehicle: acid diluted with saline): 70 % of control | T/C (dose: 200.0 mg/kg/injection, schedule: Q04DX004 (sc), vehicle: acid diluted with saline): 65 % of control | T/C (dose: 400.0 mg/kg/injection, schedule: Q04DX004 (sc), vehicle: acid diluted with saline): 52 % of control

OCC1OC(n2cnc3cc(Cl)c(Cl)cc32)C(O)C1O (centres undefined)
T/C [5]: 111 % of control | T/C [12]: 60 % of control | T/C [13]: 122 % of control

O=c1cc(CCl)[nH]nc1CCl
T/C (dose: 25.0 mg/kg/injection, schedule: Q01DX010 (sc), vehicle: saline with Tween-80): 90 % of control | T/C (dose: 50.0 mg/kg/injection, schedule: Q01DX010 (sc), vehicle: saline with Tween-80): 156 % of control | T/C (dose: 100.0 mg/kg/injection, schedule: Q01DX010 (sc), vehicle: saline with Tween-80): 90 % of control | T/C (dose: 200.0 mg/kg/injection, schedule: Q01DX010 (sc), vehicle: saline with Tween-80): 27 % of control

C[n+]1c(/C=C\C=C\N2CCCCC2)sc2ccccc21
T/C (dose: 1.5 mg/kg/injection, schedule: Q04DX004 (sc), vehicle: Klucel (hydroxypropylcellulose) (HPC)): 84 % of control | T/C (dose: 3.0 mg/kg/injection, schedule: Q04DX004 (sc), vehicle: Klucel (hydroxypropylcellulose) (HPC)): 41 % of control

Nc1ncnc2c1ncn2C1OC(COP(=O)(O)O)C(O)C1O (centres undefined)
T/C (dose: 100.0 mg/kg/injection, schedule: Q01DX010 (sc), vehicle: saline): 152 % of control | T/C (dose: 200.0 mg/kg/injection, schedule: Q01DX010 (sc), vehicle: saline): 198 % of control | T/C (dose: 400.0 mg/kg/injection, schedule: Q01DX010 (sc), vehicle: saline): 260 % of control | T/C (dose: 800.0 mg/kg/injection, schedule: Q01DX010 (sc), vehicle: saline): 67 % of control

CCCCCCCCCCCCCCCC(=O)OCC1OC(n2ccc(N)nc2=O)C(O)C1O (centres undefined)
T/C (dose: 18.75 mg/kg/injection, schedule: Q04DX004 (sc), vehicle: saline with Tween-80): 41 % of control

CN1C(=O)C(=Cc2ccc(O)cc2)C(=O)N(C)C1=O
T/C [4]: 116 % of control | T/C [5]: 101 % of control | T/C [12]: 99 % of control | T/C [13]: 74 % of control

O=C(O)C1CC1.[Ag]
T/C [3]: 81 % of control | T/C [4]: 64 % of control

CC(=O)OC1=NC(C)c2c1cc(OC(C)=O)[nH]c2=O (centres undefined)
T/C (dose: 225.0 mg/kg/injection, schedule: Q04DX004 (sc), vehicle: Klucel (hydroxypropylcellulose) (HPC)): 108 % of control | T/C (dose: 900.0 mg/kg/injection, schedule: Q04DX004 (sc), vehicle: Klucel (hydroxypropylcellulose) (HPC)): 58 % of control

Cc1ccc(C(=O)[O][Hg][CH2]C2COC([CH2][Hg][O]C(=O)c3ccc(C)cc3)CO2)cc1 (centres undefined)
T/C (dose: 150.0 mg/kg/injection, schedule: Q04DX004 (sc), vehicle: Klucel (hydroxypropylcellulose) (HPC)): 87 % of control | T/C [14]: 51 % of control | T/C [11]: 47 % of control | T/C (dose: 1200.0 mg/kg/injection, schedule: Q04DX004 (sc), vehicle: Klucel (hydroxypropylcellulose) (HPC)): 42 % of control

CCCCCCCCCCCCCCCCCCOCC(COP(=O)([O-])OCC[N+](C)(C)C)OC (centres undefined)
T/C [1]: 98 % of control | T/C [2]: 77 % of control | T/C (dose: 150.0 mg/kg/injection, schedule: Q04DX004 (sc), vehicle: saline): 50 % of control

O=C(O)CC(=O)O.[NH-]CC[NH-].[Pt+2]
T/C (dose: 25.0 mg/kg/injection, schedule: Q01DX010 (sc), vehicle: dextrose): 29 % of control | T/C (dose: 50.0 mg/kg/injection, schedule: Q01DX010 (sc), vehicle: dextrose): 41 % of control

C[C@]12CC[C@@H]3c4ccc(O)cc4CC[C@H]3[C@@H]1CC[C@@H]2O
T/C [14]: 54 % of control | T/C [11]: 75 % of control

OCC1OC(n2cnc3c(Cl)ncnc32)C(O)C1O (centres undefined)
T/C (dose: 300.0 mg/kg/injection, schedule: Q04DX004 (sc), vehicle: saline): 94 % of control | T/C (dose: 600.0 mg/kg/injection, schedule: Q04DX004 (sc), vehicle: saline): 84 % of control | T/C (dose: 1200.0 mg/kg/injection, schedule: Q04DX004 (sc), vehicle: saline): 150 % of control

CN(C)CCN1C(=O)c2cccc3cc(N)cc(c23)C1=O
T/C (dose: 64.0 mg/kg/injection, schedule: Q04DX004 (sc), vehicle: saline with Tween-80): 70 % of control

C[n+]1ccc(Nc2ccc(NC(=O)c3ccc(Nc4cc[n+](C)c5ccc(N)cc45)cc3)cc2)cc1
T/C (dose: 8.0 mg/kg/injection, schedule: Q04DX004 (sc), vehicle: distilled water + Tween-80): 74 % of control | T/C (dose: 16.0 mg/kg/injection, schedule: Q04DX004 (sc), vehicle: distilled water + Tween-80): 211 % of control | T/C (dose: 25.0 mg/kg/injection, schedule: Q04DX004 (sc), vehicle: distilled water + Tween-80): 118 % of control | T/C (dose: 32.0 mg/kg/injection, schedule: Q04DX004 (sc), vehicle: distilled water + Tween-80): 303 % of control | T/C (dose: 50.0 mg/kg/injection, schedule: Q04DX004 (sc), vehicle: distilled water + Tween-80): 51 % of control

CC(C)[C@](O)(C(=O)OCC1=CC[N+]2([O-])CC[C@@H](O)[C@@H]12)[C@H](C)O (some centres undefined)
T/C (dose: 100.0 mg/kg/injection, schedule: Q01DX010 (sc), vehicle: water): 38 % of control | T/C (dose: 200.0 mg/kg/injection, schedule: Q01DX010 (sc), vehicle: water): 48 % of control | T/C (dose: 400.0 mg/kg/injection, schedule: Q01DX010 (sc), vehicle: water): 36 % of control | T/C (dose: 800.0 mg/kg/injection, schedule: Q01DX010 (sc), vehicle: water): 44 % of control

CNC(=O)OCc1c(COC(=O)NC)c(-c2ccc(Cl)c(Cl)c2)n2c1Cc1ccccc1C2
T/C (dose: 300.0 mg/kg/injection, schedule: Q04DX004 (sc), vehicle: distilled water + Tween-80): 109 % of control | T/C [6]: 119 % of control | T/C (dose: 1200.0 mg/kg/injection, schedule: Q04DX004 (sc), vehicle: distilled water + Tween-80): 61 % of control | T/C [7]: 65 % of control
